The nature of this data set: cn = amount concentration of the nth substance listed, in mol/dm3. Conditions: 101 kPa, Liquid, c1 = 2.

Several values for one entry are separate records, joined by “and”; a condition that tells them apart may be missing. Equal values may be shown once. Numbers after ± are expanded uncertainties.

For orientation: mass density means the mass of a sample divided by its volume. One may read the speed of sound as the propagation velocity of pressure waves in the medium. On to `[Cl-].[K+]` [potassium chloride] + O, for which the mass density turned out to be 1089.1 ± 1.7 kg/m3 (298.15 K); 1087.5 ± 1.8 kg/m3 (303.15 K); 1085.6 ± 1.9 kg/m3 (308.15 K); 1083.4 ± 1.9 kg/m3 (313.15 K); 1080.9 ± 2 kg/m3 (318.15 K); 1078.3 ± 2.1 kg/m3 (323.15 K). The speed of sound is, setting by setting: (298.15 K) 1595.2 ± 3.3 m/s; (303.15 K) 1605.9 ± 3.3 m/s; (308.15 K) 1610.2 ± 3.3 m/s; (313.15 K) 1616.4 ± 3.4 m/s; (318.15 K) 1621.4 ± 3.4 m/s; (323.15 K) 1626.5 ± 3.4 m/s.

Regarding `O=[N+]([O-])[O-].[K+]` [potassium nitrate] + O, the mass density (298.15 K) is 1122.9 ± 1.8 kg/m3; the mass density (303.15 K) turned out to be 1120.6 ± 1.9 kg/m3; the mass density (308.15 K) is on record as 1118 ± 1.9 kg/m3; the mass density (313.15 K) is 1115 ± 2 kg/m3; the mass density (318.15 K) amounted to 1111.8 ± 2.1 kg/m3; the mass density (323.15 K) is 1108.2 ± 2.1 kg/m3. Moreover, the speed of sound was 1562 ± 3.3 m/s (298.15 K); 1569.4 ± 3.3 m/s (303.15 K); 1575.8 ± 3.3 m/s and 1575 ± 3.3 m/s (308.15 K); 1580 ± 3.3 m/s (313.15 K); 1584.6 ± 3.3 m/s and 1584.5 ± 3.3 m/s (318.15 K); 1588.9 ± 3.3 m/s and 1588.8 ± 3.3 m/s (323.15 K).

For the origin of these results see the NIST ThermoML archive (doi:10.1007/s10765-008-0514-x).
